Results as given in US20090041778A1, “Methods And Compositions For The Treatment Of Graft Failure” (priority 2004, published 2009).
In brackets after ≈: the same amount, converted by molar mass. Entries after “also recorded” stand apart in the source; their conditions may differ. Where a name gives a salt, the structure may show the parent alone. Each block holds one compound with its values, some of them ahead of it.

Tests used:
[1] = tested on: intimal thickening after balloon angioplasty; details: rabbit model; administered systemically; cited from earlier work
[2] = tested on: neointimal hyperplasia in mouse vein grafts; details: administered locally; cited from earlier work
[3] = cited from earlier work
[4] = tested on: human aortic vascular smooth muscle cell (HASOM cells); assay: PDGF-induced migration of HASOM cells in a 24-well Boyden chamber; assay type: cell-based
Protocol: (§1) The cells were then cultured in the presence of these agents for forty-eight hours prior to the migration assay. […] Each well contained an insert with a polycarbonate filter having 8 μm pores. In preparation for the migration assays, the membranes were coated with 0.1% gelatin for 8 hours, aspirated, and allowed to dry for 2 hours.
(§2) The M-199 media containing 0.5% BSA and 20 ng/ml human PDGF-B (hPDGF-BB) was placed in the bottom Boyden chamber. Cells were incubated at 5% CO2 at 37° C. for twelve hours and the cells lying on the upper surface of the membrane were scraped off. The insert membranes were removed and the cells on the lower surface of each membrane were stained with hematoxylin. Cell migration was then quantified by counting the cells in five random high-power fields on the lower surface of the membrane. All assays were run in triplicate.

[5] = Solubility in aqueous buffer / hydrophilicity; assay type: physicochemical
[6] = tested on: cells of porcine origin from a primary explant of porcine carotid artery; assay: PDGF-induced migration of cells of porcine origin (Boyden chamber); assay type: cell-based; details: hPDGF-BB 20 ng/ml; second passage cells; dose dependent
Protocol: as §1, §2

neointimal hyperplasia = details: rabbit carotid artery balloon angioplasty and vein graft intimal hyperplasia models; cited from earlier work

SMILES: Cc1ccc(C(=O)Nc2ccc(S(=O)(=O)O)c3cc(S(=O)(=O)O)cc(S(=O)(=O)O)c23)cc1NC(=O)c1cccc(NC(=O)Nc2cccc(C(=O)Nc3cc(C(=O)Nc4ccc(S(=O)(=O)O)c5cc(S(=O)(=O)O)cc(S(=O)(=O)O)c45)ccc3C)c2)c1 [Suramin]
- inhibition of intimal thickening after balloon angioplasty [1]: inhibit intimal thickening
- inhibition of neointimal hyperplasia in mouse vein grafts [2]: effective

- IC50 ([4]; Homo sapiens, in vitro VSMC migration, read-out: IC50 for blocking VSMC migration): 1 to 5 ng/mL (≈ 1.09 to 5.47 nM)
- hydrophilicity [5]: very hydrophilic
SMILES: CO[C@H]1C[C@@H]2CC[C@@H](C)[C@@](O)(O2)C(=O)C(=O)N2CCCC[C@H]2C(=O)O[C@H]([C@H](C)C[C@@H]2CC[C@@H](O)[C@H](OC)C2)CC(=O)[C@H](C)/C=C(\C)[C@@H](O)[C@@H](OC)C(=O)[C@H](C)C[C@H](C)/C=C/C=C/C=C/1C [rapamycin]
- absorption after oral administration [3]: absorbed rapidly and completely

SMILES: Cc1ccc(NC(=O)c2ccc(CN3CCN(C)CC3)cc2)cc1Nc1nccc(-c2cccnc2)n1 [Gleevec, imatinib mesylate]
- inhibition of PDGF-B induced migration of porcine cells [6]: inhibited
- inhibition of PDGF induced migration of HASOM cells ([4]; hPDGF-BB 20 ng/ml, 48 h drug pre-treatment, 12 h migration, dose dependent): potently inhibited; also recorded: inhibited migration

SMILES: O=C(c1ccc(F)cc1)C1CCN(CCn2c(=O)[nH]c3ccccc3c2=O)CC1 [Ketanserin]
- prevention of neointimal hyperplasia (neointimal hyperplasia): effective

SMILES: COc1cccc(CCc2ccccc2OCC(CN(C)C)OC(=O)CCC(=O)O)c1.Cl (stereo not drawn) [Anplag]
- prevention of neointimal hyperplasia (neointimal hyperplasia): effective
